# Like-named read-outs stand apart in the source and are kept apart here.
# Experiments:
# LmxCLK1 [1] = molecular target: T1, LmxCLK1 (Leishmania mexicana, UniProt E9AMP2); experiment: HTRF (TR-FRET) enzymatic inhibition assay; format: biochemical
# T1 sequence (E9AMP2 1-422): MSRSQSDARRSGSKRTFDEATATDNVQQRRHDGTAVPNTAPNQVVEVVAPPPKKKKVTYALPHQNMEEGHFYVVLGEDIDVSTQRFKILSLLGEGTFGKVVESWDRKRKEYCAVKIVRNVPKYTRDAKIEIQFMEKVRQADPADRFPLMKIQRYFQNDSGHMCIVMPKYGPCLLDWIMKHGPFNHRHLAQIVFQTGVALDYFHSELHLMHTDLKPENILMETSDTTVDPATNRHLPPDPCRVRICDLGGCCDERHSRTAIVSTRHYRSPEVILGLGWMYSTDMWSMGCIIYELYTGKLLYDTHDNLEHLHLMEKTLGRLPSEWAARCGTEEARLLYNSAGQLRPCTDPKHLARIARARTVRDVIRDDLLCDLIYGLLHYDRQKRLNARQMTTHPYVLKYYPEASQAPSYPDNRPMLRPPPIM
# Procedure: The enzymatic activity of full-length LmxCLK1 was monitored using a homogenous time-resolved fluorescence (HTRF)-based assay (HTRF KinEASE-STK S3 kit, Cisbio - catalog #62ST3PEC). For IC50 value determination, the data from two independent experiments performed in duplicate were fitted to the sigmoidal dose-response (variable slope) equation available in GraphPad Prism (v. 9.1.0). Detailed information for IC50 determination can be found in the Supplementary Information. […]
# min at 4 °C. The supernatants were loaded onto an immobilized metal affinity chromatography (IMAC) […]
# column (5 mL HisTrap FF Crude, GE Healthcare) and washed in Binding Buffer containing 30 mM imidazole.
# Proteins were eluted in Binding Buffer with 300 mM imidazole. To remove the N-terminal 6xHis-tag […]
# introduced during cloning (see above), proteins were incubated with TEV protease during dialysis […]
# overnight at 4 °C into Gel Filtration Buffer (20 mM HEPES, 500 mM NaCl, 5% glycerol, 0.5 mM TCEP).
# Recombinant proteins were further purified using reverse affinity chromatography on Ni-Sepharose […]
# followed by gel filtration (Superdex 200 16/60, GE Healthcare), and concentrated using 10 kDa molecular […]
# weight cut-off centrifugal concentrators (Millipore). LmxCLK1 (CQMED clone ID LmxCLK1-cb001) and […]
# NLuc-LmxCLK1 (CQMED clone ID LmxCLK1-cb021) proteins were stored at -80 °C for in vitro biochemical […]
# assays at 0.5 mg/mL and 0.7 mg/mL, respectively, measured by UV absorbance with a NanoDrop […]
# spectrophotometer (Thermo Scientific), using the calculated molecular weight and estimated extinction […]
# Purified proteins were further analyzed by LC-ESI-MS in a XEVO G2 Sx Q-ToF (Waters). Expected intact […]
# masses for LmxCLK1 (CQMED clone ID LmxCLK1-cb001) and NLuc-LmxCLK1 (CQMED clone ID LmxCLK1- […]
# cb021) were: 48,791.14 Da and 68,411.71 Da, respectively.
# We monitored the activity of recombinantly produced full-length LmxCLK1 (CQMED clone ID LmxCLK1- […]
# cb001) using a commercially-available homogenous time-resolved fluorescence (HTRF)-based assay (HTRF […]
# KinEASE-STK S3 kit, Cisbio - catalog #62ST3PEC). Assay development included establishing reaction […]
# parameters (optimal enzyme concentration, ATP concentration and reaction time).
# (15-point, 3-fold serial dilution and a highest final assay concentration of 10 µM) prior to transfer (100 nL) […]
# to a black, 384-well, round bottom, low-volume plate (Corning catalog #4514) containing a mixture of […]
# LmxCLK1 and peptide substrate in kinase buffer using an automated liquid transferring system (CYBIO […]
# FeliX®, Analytik Jena, Jena, Germany). […]
# started by the addition of ATP and allowed to proceed for 75 min at 30 °C. Final concentrations for reaction […]
# components were: 6 nM LmxCLK1, 66 µM ATP (10× KM,ATP), 1 µM peptide (STK Substrate 3-biotin, Cisbio).
# All components were prepared in 1× Enzymatic Buffer (Cisbio) supplemented with 5 mM MgCl2, 1 mM […]
# DTT, 0.01% Tween-20. The reaction was stopped by the addition of Detection Buffer containing EDTA, […]
# Fluorescence signal was measured using a CLARIOstar microplate reader (BMG LABTECH) with excitation […]
# at 330 nm, emission at 665 nm (acceptor) and 620 nm (donor), integration delay 60 μs and integration […]
# time 400 μs. All reactions were done in duplicate and two independent experiments were performed.
# Enzyme activity was expressed as the background-corrected HTRF ratio of the acceptor and donor […]
# emission signals according to equation [1]:
# (also on this page, place not known: imi dazole. Ni -Sepharose background -corrected (665/620)=3Acceptor!!"#$ −backgroundD.10,000 Downloaded from http://pubs.acs.org/aidcbc/article-supplement/3662943/pdf/id5c00610_si_001/ by guest on 07 August 2026) […]
# where background is the background fluorescence obtained in the absence of enzyme (blank).
# To determine IC50 values, the background-corrected HTRF ratio was plotted as a function of test
# NLuc::LmxCLK1 = NLuc::LmxCLK1 (Leishmania mexicana, UniProt E9AMP2); experiment: cell-based; format: cell-based; conditions: for receptor occupancy at 10 µM: read-out: Target occupancy Average
# Procedure, shortened: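 NanoBRET tracer displacement in live cells expressing NLuc-tagged CLK1, test compounds at 10 µM fixed, 1% DMSO final. Acceptor/donor emission (610/460 nm) ratio gives mBRET, converted to blank-corrected probe occupancy (%); probe KD from single-site saturation binding fits.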
# LmxCLK1 [2] = molecular target: T1, LmxCLK1; experiment: biochemical; format: binding
# [3] = purified LmxCLK1, 30-min pre-incubation, 66 µM ATP, read-out: IC50 enzymatic inhibition of LmxCLK1
Structure (SMILES),"IC50 (LmxCLK1 [1]; IC50 enzymatic inhibition of LmxCLK1, purified LmxCLK1, 30-min pre-incubation, 66 µM ATP) [nM]",IC50 (NLuc::LmxCLK1) [nM],receptor occupancy at 10 µM (NLuc::LmxCLK1) [%],"ΔTm at 10 µM (LmxCLK1 [2]; DSF, 10 µM compound, 2 µM LmxCLK1, Run 1, read-out: ΔTm Run 1) [°C]","ΔTm at 10 µM (LmxCLK1 [2]; DSF, 10 µM compound, 2 µM LmxCLK1, Run 2, read-out: ΔTm Run 2) [°C]","ΔTm at 10 µM (LmxCLK1 [2]; DSF, 10 µM compound, 2 µM LmxCLK1, mean of two runs, read-out: ΔTm Average) [°C]",IC50 (LmxCLK1 [1]; [3]) [nM],ΔTm at 10 µM (LmxCLK1 [2]; read-out: ΔTm Average) [°C],ΔTm at 10 µM (LmxCLK1 [2]; read-out: ΔTm Run 1) [°C],ΔTm at 10 µM (LmxCLK1 [2]; read-out: ΔTm Run 2) [°C],"IC50 (LmxCLK1 [1]; pre-incubation 0 min, read-out: Time-dependent IC50) [nM]","IC50 (LmxCLK1 [1]; pre-incubation 5 min, read-out: Time-dependent IC50) [nM]","IC50 (LmxCLK1 [1]; pre-incubation 10 min, read-out: Time-dependent IC50) [nM]","IC50 (LmxCLK1 [1]; pre-incubation 15 min, read-out: Time-dependent IC50) [nM]","IC50 (LmxCLK1 [1]; pre-incubation 30 min, read-out: Time-dependent IC50) [nM]"
Cc1ccc(C(=O)Nc2ccc(CN3CCN(C)CC3)c(C(F)(F)F)c2)cc1C#Cc1cnc2[nH]ncc2c1 [GZD824],29.9,4600,46.5 ± 3.2,17.1,17.7,17.4 ± 0.3,,,,,,,,,
C=CC(=O)Nc1cccc(Oc2nc(Nc3ccc(N4CCN(C)CC4)cc3)ncc2Cl)c1 [WZ3146],,13600,35.2 ± 3.3,,,,340,14.3 ± 0.1,14.2,14.4,,,,,
C=CC(=O)Nc1cccc(Sc2nc(Nc3ccc(N4CCN(C)CC4)cc3)ncc2Cl)c1 [WZ8040],,2900,60.8 ± 0.8,,,,204,14.8 ± 0.1,14.7,15,1660,940,911,862,759

# — paper PMC7619385 (ACS infectious diseases, 2025)
